Data published in ChEMBL document CHEMBL4699665, “Discovery of ANT3310, a Novel Broad-Spectrum Serine β-Lactamase Inhibitor of the Diazabicyclooctane Class, Which Strongly Potentiates Meropenem Activity against Carbapenem-Resistant Enterobacterales and Acinetobacter baumannii” (J Med Chem, 2020).

Experiments:
[1] = Genotoxicity in Salmonella typhimurium by Ames test; assay type: toxicity; conditions: salmonella enterica subsp. enterica serovar typhimurium
Enterobacter [2] = test: Inhibition of beta lactamase OXA in carbapenem-resistant Enterobacter assessed as meropenem maximum concentration required for antibacterial activity at 4 ug/ml by broth microdilution method (Rvb > 32 ug/ml); conditions: dose 4.0 µg/ml
[3] = molecular target: Voltage-gated inwardly rectifying potassium channel KCNH2 (Homo sapiens, UniProt Q12809); test: Inhibition of human ERG by patch-clamp assay
Chain of Voltage-gated inwardly rectifying potassium channel KCNH2 (Q12809 whole entry): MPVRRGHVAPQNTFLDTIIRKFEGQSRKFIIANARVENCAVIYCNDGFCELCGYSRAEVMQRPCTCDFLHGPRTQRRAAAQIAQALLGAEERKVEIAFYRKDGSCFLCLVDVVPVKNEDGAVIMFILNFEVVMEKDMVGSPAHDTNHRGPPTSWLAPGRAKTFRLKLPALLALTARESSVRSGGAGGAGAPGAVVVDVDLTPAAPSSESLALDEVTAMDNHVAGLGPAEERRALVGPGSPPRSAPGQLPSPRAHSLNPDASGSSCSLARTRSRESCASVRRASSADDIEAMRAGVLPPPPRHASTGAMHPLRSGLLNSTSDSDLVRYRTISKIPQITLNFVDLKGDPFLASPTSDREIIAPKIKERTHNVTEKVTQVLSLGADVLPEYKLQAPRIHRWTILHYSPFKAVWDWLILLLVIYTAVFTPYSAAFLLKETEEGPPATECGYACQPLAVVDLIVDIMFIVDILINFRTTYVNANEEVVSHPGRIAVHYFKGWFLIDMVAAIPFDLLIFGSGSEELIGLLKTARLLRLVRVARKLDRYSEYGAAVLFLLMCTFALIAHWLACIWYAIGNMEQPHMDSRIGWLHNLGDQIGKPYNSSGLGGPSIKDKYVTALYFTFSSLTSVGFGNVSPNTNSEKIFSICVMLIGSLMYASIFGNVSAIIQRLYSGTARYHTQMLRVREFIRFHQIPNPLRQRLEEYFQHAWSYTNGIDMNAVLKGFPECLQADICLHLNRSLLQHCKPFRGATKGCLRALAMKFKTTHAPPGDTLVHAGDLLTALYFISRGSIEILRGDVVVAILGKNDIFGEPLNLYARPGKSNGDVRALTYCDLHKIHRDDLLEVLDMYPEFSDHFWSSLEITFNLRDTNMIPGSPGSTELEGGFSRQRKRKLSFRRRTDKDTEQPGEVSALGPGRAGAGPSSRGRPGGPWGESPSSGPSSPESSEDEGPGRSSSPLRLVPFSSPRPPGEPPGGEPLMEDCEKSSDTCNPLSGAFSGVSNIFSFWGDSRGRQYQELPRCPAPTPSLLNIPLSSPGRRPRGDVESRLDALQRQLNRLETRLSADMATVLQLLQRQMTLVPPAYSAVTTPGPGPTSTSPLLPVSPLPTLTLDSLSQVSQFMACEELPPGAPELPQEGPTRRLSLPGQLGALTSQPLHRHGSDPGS

[4] = Volume of distribution in rat at 1 mg/kg, iv; assay type: ADME, organism-based; conditions: in vivo
[5] = Inhibition of beta lactamase KPC-2 in Enterobacter cloacae assessed as decrease in enzyme activity using nitrocefin as substrate preincubated for 10 mins followed by substrate addition measured for 10 mins by fluorescence plate reader analysis
Klebsiella pneumoniae [6] = test: Potentiation of meropenem-induced antibacterial activity against Klebsiella pneumoniae expressing SHV-11/OXA-121 assessed as meropenem MIC at 4 ug/ml by broth microdilution method (reference value: 16 ug/ml); assay type: functional; conditions: dose 4 µg/ml
Acinetobacter baumannii [7] = test: Potentiation of meropenem-induced antibacterial activity against Acinetobacter baumannii expressing OXA-23 assessed as meropenem MIC at 4 ug/ml by broth microdilution method (reference value: 32 ug/ml); assay type: functional; conditions: dose 4 µg/ml
Cytochrome P450 3A4 = Cytochrome P450 3A4 (Homo sapiens, UniProt P08684); test: Inhibition of CYP3A4 in human liver microsomes in presence of NADPH by LC-MS/MS analysis; assay type: ADME
Chain of Cytochrome P450 3A4 (P08684 whole entry): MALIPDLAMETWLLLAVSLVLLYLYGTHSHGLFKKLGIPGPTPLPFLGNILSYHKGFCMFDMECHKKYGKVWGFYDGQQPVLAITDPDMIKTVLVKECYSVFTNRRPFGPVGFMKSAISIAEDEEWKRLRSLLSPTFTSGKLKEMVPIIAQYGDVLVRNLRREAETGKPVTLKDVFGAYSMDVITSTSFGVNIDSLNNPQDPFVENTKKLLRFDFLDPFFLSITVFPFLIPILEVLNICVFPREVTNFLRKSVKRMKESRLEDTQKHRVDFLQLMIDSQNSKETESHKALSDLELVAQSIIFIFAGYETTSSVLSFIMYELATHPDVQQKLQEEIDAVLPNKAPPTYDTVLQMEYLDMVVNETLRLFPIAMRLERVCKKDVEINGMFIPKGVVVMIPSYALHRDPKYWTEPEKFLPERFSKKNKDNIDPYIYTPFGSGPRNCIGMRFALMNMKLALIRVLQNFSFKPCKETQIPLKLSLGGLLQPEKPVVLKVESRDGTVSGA

[8] = Stability in dog plasma assessed as parent compound remaining after 1 hr; assay type: ADME, cell-free, Canis lupus familiaris; conditions: read-out: Stabilty
Klebsiella pneumoniae [9] = test: Antibacterial activity against Klebsiella pneumoniae expressing SHV-11/OXA-181 by broth microdilution method; assay type: functional
Klebsiella pneumoniae [10] = test: Antibacterial activity against Klebsiella pneumoniae expressing TEM-1/SHV-11/KPC-3 by broth microdilution method; assay type: functional
Enterobacter [11] = test: Inhibition of beta lactamase KPC in carbapenem-resistant Enterobacter assessed as meropenem-induced antibacterial activity by measuring meropenem MIC90 at 4 ug/ml by broth microdilution method (Rvb >32 ug/ml); conditions: dose 4.0 µg/ml
Enterobacter [12] = test: Inhibition of beta lactamase OXA in carbapenem-resistant Enterobacter assessed as meropenem minimum concentration required for antibacterial activity at 4 ug/ml by broth microdilution method (reference value: 2 ug/ml); conditions: dose 4.0 µg/ml
[13] = Inhibition of bacteria beta lactamase OXA-23 assessed as decrease in enzyme activity using nitrocefin as substrate preincubated for 10 mins followed by substrate addition measured for 10 mins by fluorescence plate reader analysis
[14] = Intrinsic clearance in mouse hepatocytes assessed per million cells; assay type: ADME, cell-based, Hepatocyte; conditions: read-out: CLH
Klebsiella pneumoniae [15] = test: Potentiation of meropenem-induced antibacterial activity against Klebsiella pneumoniae expressing TEM-OSBL/CTX-M-14/OXA-48 assessed as meropenem MIC at 4 ug/ml by broth microdilution method (reference value: 16 ug/ml); assay type: functional; conditions: dose 4 µg/ml
Enterobacter cloacae [16] = test: Antibacterial activity against Enterobacter cloacae expressing TEM-1/KPC-2 by broth microdilution method; assay type: functional
[17] = Plasma protein binding in dog assessed as fraction unbound by LC-MS/MS analysis; assay type: ADME, cell-free, Canis lupus familiaris
Acinetobacter baumannii [18] = test: Inhibition of beta lactamase OXA in carbapenem-resistant Acinetobacter baumannii assessed as meropenem minimum concentration required for antibacterial activity at 4 ug/ml by broth microdilution method (reference value: 8 ug/ml); conditions: dose 4.0 µg/ml
Enterobacter cloacae [19] = test: Potentiation of meropenem-induced antibacterial activity against Enterobacter cloacae expressing TEM-1/KPC-2 assessed as meropenem MIC at 4 ug/ml by broth microdilution method (reference value: 8 ug/ml); assay type: functional; conditions: dose 4 µg/ml

O=C1N2C[C@@H](CC[C@H]2F)N1OS(=O)(=O)[O-].[Na+]
Activity [1]: Non-Toxic
Activity (Enterobacter [2]): 2 µg/mL
IC50 [3]: > 100000 nM
Vd [4]: 2.2 L/kg
IC50 [5]: 19 nM
MIC (Klebsiella pneumoniae [6]): 1 µg/mL
MIC (Acinetobacter baumannii [7]): 2 µg/mL
IC50 (Cytochrome P450 3A4): > 50000 nM
remaining at 1 h [8]: 85%
MIC (Klebsiella pneumoniae [9]): 128 µg/mL
MIC (Klebsiella pneumoniae [10]): 128 µg/mL
MIC90 (Enterobacter [11]): 1 µg/mL
MIC (Enterobacter [12]): < 0.03 µg/mL
IC50 [13]: 50 nM
hepatocyte CLint [14]: < 3.5 µL/min/1e6 cells
MIC (Klebsiella pneumoniae [15]): 0.25 µg/mL
MIC (Enterobacter cloacae [16]): 128 µg/mL
fraction unbound [17]: > 0.93
MIC (Acinetobacter baumannii [18]): 0.25 µg/mL
MIC (Enterobacter cloacae [19]): 0.03 µg/mL
